The values that follow come from patent publication US8821568B2, “Implant modified with non-hydroxylated vitamin D precursors” (Numat Biomedical S.L., priority 2008, dated 2014).

Type in all cases: cell-based, mouse
Experiment [1] concerns MC3T3-E1 cells. The experiment in a line: Real-time RT-PCR of vitamin D hydroxylation/degradation enzymes (CYP27A1, CYP27B1, CYP24A1), plastic wells. Particulars: TCP, 2×10^−2 nmols, not irradiated. How it is done: (§1) To test the effect of the different treatments onto the plastic wells, 96-well plates made of polystyrene were used and the treatments with 7-DHC performed directly onto them. Cells grown onto untreated TCP were added as a control for all the experiments. Cells were seeded at a density of 30,000 cells/cm^2 and they were maintained in α-MEM supplemented with 10% FCS and antibiotics. Culture media was collected after 48 hours, to test cytotoxicity and the production of the hydroxylated forms of vitamin D. Cells were harvested after 2 days of culture using Trizol reagent (Roche Diagnostics, Mannheim, Germany), to analyse early gene expression response of several osteoblast differentiation markers and enzymes involved in vitamin D synthesis using real-time RT-PCR.
(§2) RNA was isolated from cells using a monophasic solution of phenol and guanidine thiocyanate (Trizol, Roche Diagnostics, Mannheim, Germany) according to the manufacturer's protocol. RNA was quantified at 260 nm using a Nanodrop spectrophotometer (NanoDrop Technologies, Wilmington, Del., USA).
(§3) Total RNA previously isolated was reverse-transcribed to cDNA using High Capacity RNA to cDNA kit (Applied Biosystems, Foster City, Calif.) according to the protocol of the supplier. The same amount of total RNA from each sample was converted into cDNA. Each cDNA was diluted ¼ and aliquots were stored at −20° C. until the PCR reactions were carried out.
(§4) Real-time RT-PCR was performed for two reference genes: 18S ribosomal RNA (18S rRNA), glyceraldehyde-3-phosphate dehydrogenase (GAPDH), and 11 target genes alkaline phospathase (ALP), Interleukin 6 (IL-6), Collagen (Coll-1), Osteocalcin (OC), Bone Morphogenetic Protein 2 (BMP-2), Osterix (Osx), Receptor activator of nuclear factor kappa-B ligand (RANKL), Osteoprogesterin (OPG) and genes involved in vitamin D synthesis such as Vitamin D3 25-hydroxylase (CYP27A1), 25 hydroxyvitamin D3-1-alpha hydroxylase (CYP27B1) and 1,25-dihydroxyvitamin D3 24-hydroxylase (CYP24A1).
Real-time PCR were performed in the Lightcycler 480® (Roche Diagnostics, Germany). […] After each cycle, fluorescence was measured at 72° C. […]
(§5) To allow relative quantification after PCR, real-time efficiencies were calculated from the given slopes in the LightCycler 480 software (Roche Diagnostics, Mannheim, Germany) using serial dilutions. Relative quantification after PCR was calculated by normalizing target gene concentration in each sample by the concentration mean of the two reference genes in given sample using the “advanced relative quantification method” provided by the LightCycler 480 analysis software.
A general note: Real-time PCR tracks product formation cycle by cycle.

Experiment [2] concerns MC3T3-E1 cells. The experiment in a line: ELISA of 25-D3 and 1,25-D3 released to the culture media, plastic wells. Particulars: TCP; 48 hours; 2×10^−2 nmols, not irradiated; mean±SEM. How it is done: as §1
25-D3 and 1,25-D3 released to the culture media after two days of treatment were analyzed by enzyme-linked immunosorbent assay (ELISA). Aliquots from the culture media were centrifuged at 1800 rpm for 5 minutes at 4° C. and supernatants were used for 25-D3 and 1,25-D3 determination following instructions described by the manufacturer (Immunodiagnostic Systems Ltd, Boldon, Tyne and Wear, UK).
(ELISA stands for enzyme-linked immunosorbent assay.)

The test system of experiment [3] is MC3T3-E1 cells. Kind of experiment: Real-time RT-PCR of bone markers, plastic wells. To be noted: TCP; 2 days; 2×10^−2 nmols, not irradiated, compared to control. Here is the method: as §1, §2, §3, §4
(§6) Real-time PCR were performed in the Lightcycler 480® (Roche Diagnostics, Germany). Each reaction contained 5 μl of LightCycler-FastStart DNA Master^PLUS SYBR Green I (Roche Diagnostics, Mannheim, Germany), 0.5 μM of the sense and antisense specific primers (Table 1) and 3 μl of the cDNA dilution in a final volume of 10 μl. The normal amplification program consisted of a preincubation step for denaturation of the template cDNA (10 min 95° C.), followed by 45 cycles consisting of a denaturation step (10 s 95° C.), an annealing step (10 s 60° C., except for ALP that was 10 s at 65° C., OSX with 10 s at 68° C. and CYP24A1 at 58° C. 10 s) and an extension step (10 s 72° C.). After each cycle, fluorescence was measured at 72° C. Every run included a negative control without cDNA template. To confirm amplification specificity, PCR products were subjected to a melting curve analysis on the LightCycler and subsequently 2% agarose/TAE gel electrophoresis, Tm and amplicon size, respectively.
as §5

Experiment [4] concerns MC3T3-E1 cells. The experiment in a line: ALP activity in cell monolayer on coated titanium implants. Particulars: Ti implants; day 21; UV-untreated; percentage of ethanol UV-untreated group set to 100%; mean±SEM. Here is the method: (§7) To test the effect of the surface modification, 96-well plates were used. Ti disks were placed into the wells and treatments and UV-activation were performed over there. Cells grown onto untreated polystyrene tissue culture plastic (TCP) were added as a control for all the experiments. Cells were seeded at a density of 30,000 cells/cm^2 and they were maintained in α-MEM supplemented with 10% FCS and antibiotics. Culture media was collected after 48 hours, to test cytotoxicity and the production of the hydroxylated form of vitamin D, 25-D3. Cells were harvested after two days of culture using Trizol reagent (Roche Diagnostics, Mannheim, Germany), to analyze gene expression of several osteoblast differentiation markers and enzymes involved in vitamin D synthesis using real-time RT-PCR. On the other hand, MC3T3-E1 cells were harvested after 21 days to measure calcium content and ALP activity in the cell monolayer.
Cell monolayer was collected at 21 cell differentiation days and PBS 0.1% Triton X-100 was added to solubilize proteins. Cell lysates were put into freeze/thaw cycles (liquid nitrogen and 37° C. water bath) to improve protein recovery. After centrifugation at 33,000 g for 15 min at 4° C., supernatants acquired were assayed for ALP activity, calcium content and total protein determination. ALP activity was calculated by measuring the cleavage of p-Nitrophenyl Phosphate (pNPP) (Sigma, St. Louis, Mo., USA) in a soluble yellow end product which absorbs at 405 nm. A volume of 100 μl of this substrate was used in combination with 25 μl of each sample supernatant or standard point. The standard curve was prepared from calf intestinal alkaline phosphatase (CIAP, 1 U/μl) (Promega, Madison, Wis., USA) by mixing 1 μl from the stock CIAP with 5 ml of alkaline phosphatase buffer (1:5000 dilution), and then making 1:5 serial dilutions. Once the reaction was carried out, after 30 min in dark at room temperature, it was stopped with the addition of 50 μl of 3 M sodium hydroxide. At this point, absorbance was read at 405 nm.
Total protein was determined using a BCA protein assay kit (Pierce, Rockford, Ill., USA). For the analysis, cell supernatants were diluted 1:1 in PBS 0.1% Triton X-100. Standard curve and samples were analyzed as described by the manufacturer and reading the absorbance at 562 nm.

The test system of experiment [5] is MC3T3-E1 cells. Kind of experiment: Calcium content (mineralization, ICP-AES) on coated titanium implants. To be noted: Ti implants; 28 days; UV-untreated; data not shown. Here is the method:
as §7, with “On the other hand, MC3T3-E1 cells were harvested after 21 days to measure calcium content and ALP activity in the cell monolayer.” left out
[…] Cell lysates were put into freeze/thaw cycles (liquid nitrogen and 37° C. water bath) to improve protein recovery. […] ALP activity was calculated by measuring the cleavage of p-Nitrophenyl Phosphate (pNPP) (Sigma, St. Louis, Mo., USA) in a soluble yellow end product which absorbs at 405 nm. […] At this point, absorbance was read at 405 nm.
To determine calcium content samples were analyzed by inductively coupled plasma atomic emission spectrometry (Optima 5300 DV, PerkinElmer, Massachussetts, USA). […]

For experiment [6], the system named is MC3T3-E1 cells. Kind of experiment: Real-time RT-PCR of osteoblast differentiation markers, coated titanium implants. To be noted: Ti implants; 48 h; 2×10^−2 nmols, no UV, compared to control. Here is the method: as §7, §2, §3
as §6, with “Real-time RT-PCR was performed for two reference genes: 18S ribosomal RNA (18S rRNA), glyceraldehyde-3-phosphate dehydrogenase (GAPDH); and eleven target genes: alkaline phosphathase (ALP), Interleukin 6 (IL-6), Collagen (Coll-1), Osteocalcin (OC), Bone Morphogenetic Protein 2 (BMP-2), Osterix (Osx), Receptor activator of nuclear factor kappa-B ligand (RANKL), Osteoprogesterin (OPG) and genes involved in vitamin D synthesis such as Vitamin D3 25-hydroxylase (CYP27A1) and 25 hydroxyvitamin D3-1-alpha hydroxylase (CYP27B1). Real-time” for “Real-time”, “C.)” for “C. and CYP24A1 at 58° C. 10 s)”
To allow relative quantification after PCR, real-time efficiencies were calculated from the given slopes in the LightCycler 480 software (Roche Diagnostics, Mannheim, Germany) using serial dilutions. Relative quantification after PCR was calculated by normalizing target gene concentration in each sample by the concentration mean of the two reference genes in given sample using the Advanced relative quantification method provided by the LightCycler 480 analysis software.

For the compound `C=C1CC[C@H](O)C/C1=C/C=C1\CCC[C@]2(C)[C@@H]([C@H](C)CCCC(C)(C)O)CC[C@@H]12` [25-D3, 25-hydroxyvitamin D3, reference compound], the “CYP27B1 mRNA expression” value with MC3T3-E1 cells [1] (48 h) is “not statistically different”. Further, in the experiment with MC3T3-E1 cells [1] (2 days, data not shown), the “CYP24A1 mRNA levels” value is “only detected”. Besides, in the experiment with MC3T3-E1 cells [2], the “1,25-D3 detected in culture media” value is 42 ± 4 pmol/L and the “25-D3 released to culture media” value worked out at 415 ± 20 nmol/L. Moreover, the IL-6 expression levels result in the experiment with MC3T3-E1 cells [3] was “significantly higher expression levels”. Moreover, the ALP activity in the experiment with MC3T3-E1 cells [4] was determined as 77.40±13.40%. For the same compound, the Calcium levels entry with MC3T3-E1 cells [5] is “trend to increased calcium levels”.
As for `C=C1CC[C@H](O)C/C1=C/C=C1\CCC[C@]2(C)[C@@H]([C@H](C)CCCC(C)C)CC[C@@H]12` [D3, cholecalciferol, reference compound], in the experiment with MC3T3-E1 cells [2], the “1,25-D3 detected in culture media” value amounted to 19.7 ± 0.7 pmol/L and the “25-D3 released to culture media” value is 9.1 ± 1.9 nmol/L. Also, in the experiment with MC3T3-E1 cells [6], the RANKL gene expression result was “Statistical significances”. Also, in the experiment with MC3T3-E1 cells [4], the ALP activity stood at 35.28±4.23%.
